According to DBAASP:
≈ marks a conversion by molar mass, not a printed value. Each block holds one compound with its values, some of them ahead of it.

Legend:
Test in all cases: ≥ marks a high value that may be exact or a test limit, other limits are often not marked, values filed in µg/mL are converted to µM
Acinetobacter baumannii = system: Acinetobacter baumannii
Salmonella typhimurium = system: Salmonella typhimurium
[1] = system: Klebsiella pneumoniae 913
[2] = system: Enterobacter cloacae 6266
Escherichia coli 5580 = system: Escherichia coli 5580
[3] = system: Streptococcus pneumoniae ATCC 49619
[4] = system: Klebsiella pneumoniae 1625
Escherichia coli 170 = system: Escherichia coli 170
[5] = system: Pseudomonas aeruginosa 5106
[6] = system: Klebsiella pneumoniae 68228
[7] = system: Escherichia coli ATCC 25922
[8] = system: Pseudomonas aeruginosa 4677
[9] = system: Pseudomonas aeruginosa 3599
[10] = system: Enterobacter cloacae 2524
[11] = system: Bacillus subtilis PCI 219
[12] = system: Staphylococcus aureus FDA 209P
[13] = system: Escherichia coli NIHJ JC-2
[14] = system: Pseudomonas aeruginosa U-31
[15] = system: Enterococcus faecalis CGMCC 1.125
[16] = system: Staphylococcus aureus CGMCC 1.2386
[17] = system: Pseudomonas putida CGMCC 1.645
[18] = system: Shigella flexneri CGMCC 1.1868
[19] = system: Staphylococcus aureus CGMCC 1.879
[20] = system: Staphylococcus aureus CGMCC 1.128
[21] = system: Salmonella sp. CGMCC 1.1552
[22] = system: Shigella dysenteriae ATCC 9753
[23] = system: Lactiplantibacillus plantarum CGMCC 1.551
[24] = system: Bacillus subtilis CGMCC 1.1627
[25] = system: Escherichia coli CGMCC 1.1580
[26] = system: Lactiplantibacillus plantarum CGMCC 1.11
[27] = system: Lactococcus lactis ATCC 15577
[28] = system: Micrococcus luteus CGMCC 1.193
Escherichia coli JM109 = system: Escherichia coli JM109
[29] = system: Lactiplantibacillus plantarum CGMCC 1.511
[30] = system: Listeria monocytogenes ATCC 7648
[31] = system: Lactiplantibacillus plantarum CGMCC 1.556
[32] = system: Lactiplantibacillus plantarum CGMCC 1.124
[33] = system: Pseudomonas aeruginosa CGMCC 1.647
[34] = system: Staphylococcus aureus ATCC 6538P
[35] = system: Enterobacter cloacae 6780
Carnobacterium mobile = system: Carnobacterium mobile
Fusarium oxysporum = system: Fusarium oxysporum

SMILES: CC[C@H](C)[C@H](NC(=O)CN)C(=O)N[C@@H](CC(C)C)C(=O)N[C@@H](CCCCN)C(=O)N[C@H](C(=O)N[C@H](C(=O)N[C@@H](CCCCN)C(=O)N[C@@H](CO)C(=O)N[C@H](C(=O)N[C@@H](C)C(=O)N[C@@H](CO)C(=O)N[C@@H](CCCCN)C(=O)N[C@H](C(=O)N[C@@H](C)C(=O)N[C@@H](CC(N)=O)C(=O)N[C@H](C(=O)N[C@H](C(=O)N[C@@H](CCC(N)=O)C(=O)N[C@@H](CCCCN)C(=O)N[C@@H](CC(C)C)C(=O)N[C@@H](CCCCN)C(=O)N[C@@H](CCCN=C(N)N)C(=O)N[C@@H](CCCCN)C(=O)N[C@@H](C)C(=O)N[C@@H](CCCCN)C(=O)N[C@@H](CC(N)=O)C(=O)N[C@@H](C)C(=O)N[C@H](C(=O)N[C@@H](C)C(=O)O)C(C)C)C(C)C)[C@@H](C)O)C(C)C)[C@@H](C)CC)[C@@H](C)CC)[C@@H](C)O [GILKTIKSIASKVANTVQKLKRKAKNAVA]
MIC (Acinetobacter baumannii): 3.1 µM (≈ 9.55 µg/mL)
MIC (Salmonella typhimurium): 3.15 µM (≈ 9.7 µg/mL)
MIC [1]: 3.1 µM (≈ 9.55 µg/mL)
MIC [2]: 3.1 µM (≈ 9.55 µg/mL)
MIC (Escherichia coli 5580): 1.6 µM (≈ 4.93 µg/mL)
MIC [3]: 25 µM (≈ 77 µg/mL)
MIC [4]: 1.6 µM (≈ 4.93 µg/mL)
MIC (Escherichia coli 170): 3.1 µM (≈ 9.55 µg/mL)
MIC [5]: 12 µM (≈ 37 µg/mL)
MIC [6]: 6.2 µM (≈ 19.1 µg/mL)
MIC [7]: 1.6 µM (≈ 4.93 µg/mL)
MIC [8]: 25 µM (≈ 77 µg/mL)
MIC [9]: ≥ 50 µM
MIC [10]: 6.2 µM (≈ 19.1 µg/mL)

SMILES: CC(C)C[C@H](NC(=O)[C@H](CCCCN)NC(=O)[C@H](CCC(N)=O)NC(=O)[C@@H](NC(=O)[C@@H](NC(=O)[C@H](CC(N)=O)NC(=O)[C@H](C)NC(=O)[C@@H](NC(=O)[C@@H](N)CCCCN)C(C)C)[C@@H](C)O)C(C)C)C(=O)N[C@@H](CCCCN)C(=O)N[C@@H](CCCN=C(N)N)C(=O)N[C@@H](CCCCN)C(=O)N[C@@H](C)C(=O)N[C@@H](CCCCN)C(=O)N[C@@H](CC(N)=O)C(=O)N[C@@H](C)C(=O)N[C@H](C(=O)O)C(C)C [KVANTVQKLKRKAKNAV]
MIC (Acinetobacter baumannii): ≥ 50 µM
MIC [1]: ≥ 50 µM
MIC (Escherichia coli 170): ≥ 50 µM
MIC [7]: > 50 µM
MIC [8]: ≥ 50 µM
MIC [10]: 25 µM (≈ 47.4 µg/mL)
MIC [35]: ≥ 50 µM

Now from value to compound, other results behind:

MIC [11]: ≥ 43.6 µM
MIC [12]: ≥ 43.6 µM
MIC [13]: ≥ 43.6 µM
MIC [14]: ≥ 43.6 µM
SMILES: CC(C)C[C@H](NC(=O)[C@H](CCCCN)NC(=O)[C@H](CCCCN)NC(=O)[C@H](CC(C)C)NC(=O)[C@H](CC(C)C)NC(=O)[C@H](CCCCN)NC(=O)[C@H](CCCCN)NC(=O)[C@H](Cc1c[nH]c2ccccc12)NC(=O)[C@H](CCCCN)NC(=O)[C@H](CCCCN)NC(=O)[C@H](CC(C)C)NC(=O)[C@H](CC(C)C)NC(=O)[C@H](CCCCN)NC(=O)[C@H](CCCCN)NC(=O)[C@H](CC(C)C)NC(=O)[C@H](CCCCN)NC(=O)[C@@H](N)CCCCN)C(=O)N[C@@H](CCCCN)C(=O)O [KKLKKLLKKWKKLLKKLK]

MIC [15]: 0.146 µM (≈ 0.384 µg/mL)
MIC [16]: 0.21 µM (≈ 0.553 µg/mL)
MIC [17]: 0.075 µM (≈ 0.197 µg/mL)
MIC [18]: 0.135 µM (≈ 0.355 µg/mL)
MIC [19]: 0.132 µM (≈ 0.347 µg/mL)
MIC [20]: 0.218 µM (≈ 0.574 µg/mL)
MIC [21]: 0.136 µM (≈ 0.358 µg/mL)
MIC [22]: 0.185 µM (≈ 0.487 µg/mL)
MIC [24]: 0.121 µM (≈ 0.318 µg/mL)
MIC [25]: 0.235 µM (≈ 0.618 µg/mL)
MIC [27]: 1.23 µM (≈ 3.22 µg/mL)
MIC [28]: 0.153 µM (≈ 0.403 µg/mL)
MIC (Escherichia coli JM109): 0.135 µM (≈ 0.355 µg/mL)
MIC [30]: 0.112 µM (≈ 0.295 µg/mL)
MIC [33]: 0.144 µM (≈ 0.379 µg/mL)
MIC [34]: 0.178 µM (≈ 0.468 µg/mL)
SMILES: CC[C@H](C)[C@H](NC(=O)[C@H](CC(C)C)NC(=O)[C@H](Cc1ccccc1)NC(=O)[C@H](CCC(N)=O)NC(=O)[C@H](CCC(N)=O)NC(=O)[C@H](CCCCN)NC(=O)[C@@H](NC(=O)[C@@H](N)CCCCN)[C@@H](C)O)C(=O)N[C@@H](CCCCN)C(=O)N[C@@H](C)C(=O)N[C@@H](CCC(N)=O)C(=O)N[C@H](C(=O)N[C@@H](CCC(N)=O)C(=O)N[C@@H](CC(C)C)C(=O)N[C@@H](Cc1ccccc1)C(=O)N[C@@H](CCCCN)C(=O)N[C@H](C(=O)N[C@@H](Cc1ccccc1)C(=O)NCC(=O)N[C@@H](Cc1ccc(O)cc1)C(=O)N[C@H](C(=O)N[C@@H](CC(C)C)C(=O)O)[C@@H](C)O)C(C)C)[C@@H](C)O [KTKQQFLIKAQTQLFKVFGYTL]
MIC [23]: 0.722 µM (≈ 1.9 µg/mL)
MIC [26]: 0.885 µM (≈ 2.33 µg/mL)
MIC [29]: 1.35 µM (≈ 3.56 µg/mL)
MIC [31]: 0.682 µM (≈ 1.79 µg/mL)
MIC [32]: 0.242 µM (≈ 0.637 µg/mL)

MIC (Carnobacterium mobile): 0.0025 µM (≈ 0.00538 µg/mL)
MIC (Fusarium oxysporum): 0.1 µM (≈ 0.215 µg/mL)
SMILES: CSCC[C@H](N)C(=O)N[C@@H](C)C(=O)N[C@@H](CO)C(=O)N[C@@H](CCCN=C(N)N)C(=O)N[C@@H](C)C(=O)N[C@@H](C)C(=O)N[C@@H](CCCN=C(N)N)C(=O)N[C@@H](CC(C)C)C(=O)N[C@@H](C)C(=O)N[C@@H](C)C(=O)N[C@@H](CCCN=C(N)N)C(=O)N[C@@H](CC(C)C)C(=O)N[C@@H](C)C(=O)N[C@@H](CCCN=C(N)N)C(=O)N[C@@H](CC(C)C)C(=O)N[C@@H](C)C(=O)N[C@@H](CC(C)C)C(=O)N[C@@H](CCCN=C(N)N)C(=O)N[C@@H](C)C(=O)N[C@@H](CC(C)C)C(=O)O [MASRAARLAARLARLALRAL]
